Where two headings read alike, the source gives them in different places.
Tests used:
α2-adrenergic receptor [1] = target: T1, α2-adrenergic receptor (Bos taurus, UniProt Q28838); test: α2-adrenergic receptor binding ([3H] clonidine binding site, calf cerebral cortex); settings: for affinity for the α2-adrenergic receptors (in words): of the compounds tested, with the exception of compound 5
T1 construct: from tissue; host or cells: calf cerebral cortex
T1 sequence (Q28838 1-468): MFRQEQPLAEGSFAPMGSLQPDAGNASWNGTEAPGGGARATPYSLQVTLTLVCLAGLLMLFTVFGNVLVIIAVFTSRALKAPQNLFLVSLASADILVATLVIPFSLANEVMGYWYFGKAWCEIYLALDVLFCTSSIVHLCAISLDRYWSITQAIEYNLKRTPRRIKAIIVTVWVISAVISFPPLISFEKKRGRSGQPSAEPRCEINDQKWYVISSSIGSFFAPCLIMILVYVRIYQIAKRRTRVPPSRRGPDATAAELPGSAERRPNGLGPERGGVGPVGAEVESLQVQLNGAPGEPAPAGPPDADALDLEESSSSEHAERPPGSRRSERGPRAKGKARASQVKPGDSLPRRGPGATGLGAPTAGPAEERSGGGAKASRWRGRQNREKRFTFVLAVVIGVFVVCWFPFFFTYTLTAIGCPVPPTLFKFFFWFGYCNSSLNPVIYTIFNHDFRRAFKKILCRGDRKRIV
Experimental: (§1) The α1 - and α2 -adrenergic receptor binding was determined for 1-(3-halo-2-pyridinyl)piperazines and a number of other structurally related compounds shown in Table I.
(§2) Binding to the α2 -adrenergic receptor was determined by the method of Lyon and Randall, Life Sciences, 26, 1121 (1980) and also is expressed in Table I as Ki representing the affinity of each compound for the [^3 H] clonidine binding site in calf cerebral cortex.

α2-adrenergic receptor [2] = test: as above; settings: compared to any of the other tested compounds
Experimental: as §1, §2

α1-adrenergic receptor = α1-adrenergic receptor binding ([3H] prazosin binding site, calf cerebral cortex); settings: for Ki: [3H] prazosin binding site, calf cerebral cortex; for affinity for the α1-adrenergic receptors (in words): of the compounds tested
Experimental: as §1
Extent of binding to the α1 -adrenergic receptor was determined by the method of Greengrass and Bremner, Eur. J. Pharmacol., 55, 323 (1979) and is expressed in Table I as Ki, representing the affinity of each compound for the [^3 H] prazosin binding site in calf cerebral cortex.

[3] = test system: α1- or α2-adrenergic receptors; settings: Clineschmidt et al. 1979; cited from earlier work
depression = settings: in vivo; cited from earlier work
norepinephrine reuptake = settings: cited from earlier work
α2-adrenergic receptors = settings: cited from earlier work
[4] = test system: clonidine-induced sedation; settings: man; Autret et al. 1977; cited from earlier work
[5] = test system: locomotor depressant effects of methyldopa; settings: rats; Clineschmidt et al. 1980; cited from earlier work
[6] = test system: sedation produced by clonidine; settings: Drew et al. 1979; cited from earlier work
[7] = [3H] clonidine binding site, calf cerebral cortex, read-out: Adrenergic Binding Ki α2

## Fc1cccnc1N1CCNCC1 [Compound 1, 1-(3-fluoro-2-pyridinyl)piperazine]
α2-adrenergic receptor [1]
  Ki: 8.3 nM
  affinity for the α2-adrenergic receptors (in words): strongest affinity (lowest Ki)
α2-adrenergic receptor [2]
  selectivity or ratio of Kiα1/Kiα2 (in words): greatest selectivity
α1-adrenergic receptor
  Ki: 2300 nM
  affinity for the α1-adrenergic receptors (in words): weakest affinity (highest Ki)

## Clc1cccnc1N1CCNCC1 [Compound 2, 1-(3-chloro-2-pyridinyl)piperazine]
α2-adrenergic receptor [1]; [7]
  Ki: 7.9 nM
α2-adrenergic receptor [1]
  affinity for the α2-adrenergic receptors (in words): strongest affinity (lowest Ki)
α2-adrenergic receptor [2]
  selectivity or ratio of Kiα1/Kiα2 (in words): greatest selectivity
α1-adrenergic receptor
  Ki: 1800 nM
  affinity for the α1-adrenergic receptors (in words): weakest affinity (highest Ki)

## Brc1cccnc1N1CCNCC1 [Compound 3, 1-(3-bromo-2-pyridinyl)piperazine]
α2-adrenergic receptor [1]; [7]
  Ki: 11 nM
α2-adrenergic receptor [1]
  affinity for the α2-adrenergic receptors (in words): strongest affinity (lowest Ki)
α2-adrenergic receptor [2]
  selectivity or ratio of Kiα1/Kiα2 (in words): greatest selectivity
α1-adrenergic receptor
  Ki: 1480 nM
  affinity for the α1-adrenergic receptors (in words): weakest affinity (highest Ki)

## Ic1cccnc1N1CCNCC1 [Compound 4]
α2-adrenergic receptor [1]; [7]
  Ki: 42 nM
α1-adrenergic receptor
  Ki: 1600 nM

## CN1CCN(c2ncccc2Br)CC1 [Compound 5]
α2-adrenergic receptor [1]; [7]
  Ki: 2.9 nM
α1-adrenergic receptor
  Ki: 160 nM

## Clc1cccc(N2CCNCC2)n1 [Compound 6]
α2-adrenergic receptor [1]; [7]
  Ki: 18 nM
α1-adrenergic receptor
  Ki: 500 nM

## c1ccc(N2CCNCC2)nc1 [Compound 7]
α2-adrenergic receptor [1]; [7]
  Ki: 37 nM
α1-adrenergic receptor
  Ki: 2400 nM

## Clc1ccc(N2CCNCC2)nc1 [Compound 8]
α2-adrenergic receptor [1]
  Ki: 1000 nM

## Clc1cncc(N2CCNCC2)n1 [Compound 9]
α2-adrenergic receptor [1]
  Ki: 127 nM
α1-adrenergic receptor
  Ki: 2400 nM

## Clc1nccnc1N1CCNCC1 [Compound 10]
α2-adrenergic receptor [1]; [7]
  Ki: 160 nM
α1-adrenergic receptor
  Ki: 26000 nM

## CN1CCN2c3ccccc3Cc3ccccc3C2C1 (centres unmarked) [Mianserin]
[3]
  selectivity for α1- or α2-adrenergic receptors: fails to exhibit any important selectivity for α1 - or α2 -adrenergic receptors
depression
  clinical antidepressant effectiveness: clinically effective antidepressant
Norepinephrine reuptake
  in vivo norepinephrine reuptake inhibiting properties: minimal in vivo norepinephrine reuptake inhibiting properties
α2-adrenergic receptors
  α2-adrenergic receptor blockade: blocks α2 -adrenergic receptors

## COC(=O)[C@@H]1[C@H]2C[C@H]3c4[nH]c5ccccc5c4CCN3C[C@@H]2CC[C@@H]1O [yohimbine]
[4]
  effect on clonidine-induced sedation: reduce clonidine-induced sedation in man
[5]
  effect on locomotor depressant effects of methyldopa: antagonizes
[6]
  effect on sedation produced by clonidine: antagonizes the sedation produced by clonidine

Reference: US4456604A, “1-(3-Halo-2-pyridinyl) piperazine” (Merck & Co., Inc., priority 1982, dated 1984)
